Measured values as given in patent publication US8268856B2, “Method to use compositions having antidepressant anxiolytic and other neurological activity and compositions of matter” (priority 2007, dated 2012).
Entries after “also recorded” stand apart in the source; their conditions may differ. Where two headings read alike, the source gives them in different places.

Legend:
male Swiss Webster mice [1] = assay: Porsolt forced swim test (FST); type: in vivo, mouse; settings: for antidepressant-like activity / effect on immobility time in FST: male Swiss Webster mice, IP, immobility during last 4 min of 6 min swim
Description: (§1) Locomotor Activity and the FST. To evaluate the isolated compounds for antidepressant-like activity, male Swiss Webster mice (Harlan, Indianapolis, Ind.) (25-30 g weight) were used. Animals were housed in groups of five with a 12 h light/12 h dark cycle. Food and water were provided at libitum. All procedures involving animals were performed as approved by the Institutional Animal Care and Use Committee of the University of Mississippi. Animals were randomly divided into groups (n=6-10/group). Each group was injected IP with either the compound (1-20 mg/kg), desipramine (20 mg/kg), or vehicle (saline, 10% ethanol or 10% ethanol/1% DMSO). Following injection, locomotor activity was monitored using an automated activity monitoring system (San Diego Instruments, San Diego, Calif.). Each mouse was placed in a Plexiglas enclosure and locomotor activity was recorded as the number of photobeam interruptions for 30 min after drug injection. The activity for the last ten min was quantified and analyzed. Immediately at the end of the locomotor session, individual mice were subjected to the FST. The mice were individually placed in a clear plastic cylinder (23 cm high, 10 cm internal diameter) filled with deionized water (8 cm high) at 25° C. The mice were recorded with a video camera (positioned at about 30 cm above the cylinder) for a total of 6 min. The total period of immobility during the last 4 min was timed by three independent observers. The mean immobility time was then calculated. A mouse was judged to be immobile when it remained afloat, making only minimal movements to keep its head above water.
(§2) For the FST, immobility times of the three independent rates were averaged for each mouse and data were analyzed using one way analysis of variance (ANOVA) followed by Bonferroni Multiple comparison posthoc tests to determine statistical differences from the corresponding vehicle control. Chick distress vocalization data were analyzed by two-way repeated measures ANOVA, one-way ANOVA and simple effects analyses with post-hoc comparisons conducted using Fisher's LSD test. p-Values less than 0.05 were considered statistically significant.
(§3) Porsolt R D, et al. Behavioral Despair In Mice: A Primary Screening Test for Antidepressants, 229 Arch. Int. Pharmacodyn. 327-36 (1977). […] In order to control for false positives, as has been previously observed with psychostimulants, Cryan, J., et al. Assessing Substrates Underlying The Behavioral Effects Of Antidepressants Using The Modified Rat Forced Swimming Test. 29 Neurosci Biobehav Rev. 547-69 (2005) locomotor activity of the animals was monitored using an automated photobeam activity monitoring system. Lucki. I. The Forced Swimming Test As A Model For Core And Component Behavioral Effects Of Antidepressant Drugs. 8 Behav. Pharmacol. 522-32 (1997).

5HT2A receptor [2] = biological target: T1, 5HT2A receptor (Homo sapiens, UniProt P28223); settings: human serotonin receptor, reported; cited from earlier work
T1 sequence (P28223 whole entry): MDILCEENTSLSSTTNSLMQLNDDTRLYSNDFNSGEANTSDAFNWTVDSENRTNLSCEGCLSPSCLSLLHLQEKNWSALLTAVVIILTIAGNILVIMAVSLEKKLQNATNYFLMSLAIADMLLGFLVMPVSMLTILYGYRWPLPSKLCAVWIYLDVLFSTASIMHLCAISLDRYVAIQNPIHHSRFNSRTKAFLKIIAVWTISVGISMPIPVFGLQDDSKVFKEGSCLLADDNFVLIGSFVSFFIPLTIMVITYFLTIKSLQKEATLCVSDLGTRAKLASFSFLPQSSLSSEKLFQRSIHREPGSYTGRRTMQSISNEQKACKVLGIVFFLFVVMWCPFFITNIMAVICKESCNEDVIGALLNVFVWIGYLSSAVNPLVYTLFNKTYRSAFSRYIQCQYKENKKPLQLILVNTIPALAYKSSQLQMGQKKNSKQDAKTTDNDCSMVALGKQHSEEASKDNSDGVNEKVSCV

5HT2C receptor = biological target: T2, 5HT2C receptor (Homo sapiens, UniProt P28335); settings: cited from earlier work; for Ki: human serotonin receptor, reported
T2 sequence (P28335 33-458): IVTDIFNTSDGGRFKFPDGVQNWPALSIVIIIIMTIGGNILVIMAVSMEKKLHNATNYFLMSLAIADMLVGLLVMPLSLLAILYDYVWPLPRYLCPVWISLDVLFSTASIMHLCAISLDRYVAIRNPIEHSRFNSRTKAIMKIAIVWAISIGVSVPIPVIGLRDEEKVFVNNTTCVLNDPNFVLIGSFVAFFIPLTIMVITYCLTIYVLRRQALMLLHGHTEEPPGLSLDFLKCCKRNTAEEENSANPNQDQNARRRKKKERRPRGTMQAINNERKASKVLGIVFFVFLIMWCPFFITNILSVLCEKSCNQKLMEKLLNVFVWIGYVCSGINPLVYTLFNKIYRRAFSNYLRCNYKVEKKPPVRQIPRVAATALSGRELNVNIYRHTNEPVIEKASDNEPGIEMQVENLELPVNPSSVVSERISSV

serotonin receptors = assay: Affinity to serotonin receptors (receptor binding panel); design: species or system human or rodent
Description: (§4) Evaluation of binding affinity of isolated compounds to serotonin receptors. In vitro testing of isolated compounds was completed using a small panel of receptor binding assays and then validated in a comprehensive panel by the NIMH Psychoactive Drug Screening Program. Pharmacological and functional screening of isolated molecules was performed on cloned human or rodent CNS receptors, channels, and transporters. Hu, J-F., et al. New Antiinfective and Human 5-HT2 Receptor Binding Natural and Semisynthetic Compounds from the Jamaican Sponge Smenospongia aurea. 65 Jour. of Nat. Prod. 476-80 (2002).
as §3

male Swiss Webster mice [3] = assay: Locomotor activity test, Swiss Webster mice; type: in vivo, mouse; settings: IP, photobeam interruptions, versus vehicle
Description: as §1
(§5) Effect of select compounds on locomotor activity. Since reductions in immobility time is the primary criterion to assess antidepressant like activity in both the FST and TST, it is crucial to confirm that the effects observed in both tests are not attributed to specific stimulant action of the tested compounds, which would be reflected as enhancement of the locomotor activity. Accordingly, the effect of tested compounds on locomotor activity was evaluated using an automated activity monitoring system.

Male DBA2/J mice = assay: Mouse tail suspension test (TST); type: in vivo; settings: i.p., versus vehicle
Description: Based on the data collected from the FST, the antidepressant action of aaptamine. 5,6-dibromo-N,N-dimethyltryptamine, and 3-bromotyramine was examined in the mouse tail suspension test (TST), another model highly predictive of antidepressant action. Similar to the FST, this test depends on the depressive behavior elicited by the animals when placed in an inescapable situation, in this case suspending the animal by its tail. Male DBA2/J mice were used for this test.
In fact, higher doses seem to increase immobility time (FIG. 9C). […] However, such effect was only evident at the 40 mg/kg dose (compared to 10 and 20 mg/kg dose in the FST) (FIG. 9D).

DBA2/J mice = assay: Locomotor activity test, DBA2/J mice; type: in vivo, mouse; settings: versus vehicle
Description: as §5
However, Tukey's post-hoc tests confirmed that there were no statistical differences between the vehicle controls, or compounds from their respective vehicle controls (FIG. 10A). […] In DBA2/J mice, the pattern of responding in the locomotor studies was similar to that observed in the Swiss Webster mice (FIG. 10B). […] It is thus evident that the drug/dose combinations that produced antidepressant-like effects in both the FST and TST were not associated with confounding stimulant effects effect of select compounds in chick anxiety/depression model: […]

white-leghorn cockerels = assay: Chick anxiety-depression continuum model (SCADM); type: in vivo; settings: 30 mg/kg dose
Description: 5,6-Dibromo-N,N-dimethyltryptamine (1) was evaluated in the FST and chicken anxiety-depression model. […] In the chick anxiety-depression continuum model, socially raised chicks are separated from conspecifics during a two hour test session. […] Previous studies have shown the first 5 min block to model the anxiety phase whereby a diverse set of anxiolytic compounds reduce distress vocalizations and that the last 90 min of the test session models the depressive phase of the model whereby antidepressants increase distress vocalizations (i.e., block the onset of behavioral despair). Sufka, K. J. et al.; 17 C. M. Behav.
Sulfka Chick Anxiety-Depression Model (SCADM) Test. Group housed white-leghorn cockerels (Cal-Maine W36) were tested at ages 5-6 days post-hatch. […] Vocalizations were recorded in 5-min blocks over a 120 min test period. […]
as §2

5-HT2B receptors = 5-HT2B receptors (UniProt P41595); assay: In vitro receptor binding assay, 5-HT2B; design: species or system human or rodent; settings: read-out: Ki 5-HT2B; preliminary data
Description: as §4

5-HT6 = 5-HT6 (UniProt P50406); assay: In vitro receptor binding assay, 5-HT6; design: species or system human or rodent; settings: read-out: Ki 5-HT6; preliminary data
Description: as §4

5HT2A receptor [4] = biological target: T1, 5HT2A receptor; assay: In vitro receptor binding assay, 5-HT2A; design: species or system human or rodent; settings: read-out: Ki 5-HT2A; preliminary data
Description: as §4

5-HT2C = biological target: T3, 5-HT2C (UniProt P28335); assay: In vitro receptor binding assay, 5-HT2C; design: species or system human or rodent; settings: read-out: Ki 5-HT2C; preliminary data
T3 sequence (P28335 1-458): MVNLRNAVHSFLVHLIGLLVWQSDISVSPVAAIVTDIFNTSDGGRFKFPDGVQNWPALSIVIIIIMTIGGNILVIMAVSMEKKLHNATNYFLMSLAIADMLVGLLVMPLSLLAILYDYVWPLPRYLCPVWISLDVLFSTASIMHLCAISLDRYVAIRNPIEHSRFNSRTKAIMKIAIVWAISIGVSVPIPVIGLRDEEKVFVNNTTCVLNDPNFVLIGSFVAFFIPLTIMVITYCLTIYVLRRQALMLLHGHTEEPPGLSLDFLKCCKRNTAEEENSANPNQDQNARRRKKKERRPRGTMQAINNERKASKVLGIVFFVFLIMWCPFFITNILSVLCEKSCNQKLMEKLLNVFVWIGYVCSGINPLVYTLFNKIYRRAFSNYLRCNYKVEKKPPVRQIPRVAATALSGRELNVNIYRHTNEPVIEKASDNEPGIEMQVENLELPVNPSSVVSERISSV
Description: as §4

Q: With `CN(C)CCCC1(c2ccc(F)cc2)OCc2cc(C#N)ccc21` (stereo not drawn) [citalopram, reference compound] as the compound, how does the “reduction in immobility time in FST” value (male Swiss Webster mice [1]; 5 mg/kg dose, versus saline vehicle) read?
A: 40%

Q: Which Ki (5HT2A receptor [2]) does the source give for N-3′-ethylaplysinopsin here?
A: 1.7 µM

Q: What about the Ki (5HT2C receptor) of the same compound?
A: 3.5 µM

Q: What does the source list for `COc1cc2ccnc3c2c(c1O)N(C)C=C3` [isoaaptamine]?
A: antidepressant-like activity / effect on immobility time in FST (male Swiss Webster mice [1]; versus vehicle): significantly increased immobility time in a dose-dependent manner; affinities to serotonin receptors (serotonin receptors): moderate affinities

Q: Which “antidepressant-like activity / effect on immobility time in FST” value (“antidepressant-like activity / effect” for short) (male Swiss Webster mice [1]; versus vehicle) does the source give for `Oc1cc2ccnc3c2c(c1O)NC=C3` [8,9-demethylaaptamine] here?
A: Neither

Q: What about the “affinities to serotonin receptors” value (serotonin receptors) of the same compound?
A: moderate affinities

Q: With `COc1cc2ccnc3c2c(c1OC)NC=C3` [aaptamine] as the compound, how does the “reduction in immobility time in FST” value (male Swiss Webster mice [1]; 20 mg/kg dose, versus vehicle) read?
A: 36%

Q: Which results are given for `CNCCCN1c2ccccc2CCc2ccccc21` [desipramine, reference compound]?
A: reduction in immobility time in FST (male Swiss Webster mice [1]; 20 mg/kg dose, versus vehicle): 27%; effect on locomotor activity (male Swiss Webster mice [3]): no significant difference in locomotor activity; antidepressant-like action / immobility in tail suspension test (Male DBA2/J mice): significant reduction in immobility

Q: Which Ki (5HT2A receptor [2]) does the source give for `CN1C(=N)N(C)/C(=C/c2c[nH]c3cc(Br)ccc23)C1=O` [6-bromoaplysinopsin] here?
A: 2 µM

Q: And the Ki (5HT2C receptor)?
A: 0.33 µM

Q: Which Ki (5HT2A receptor [2]) does the source give for `CN1C(=N)NC(=Cc2c[nH]c3cc(Br)ccc23)C1=O` [6-bromo-2′-de-N-methylaplysinopsin] here?
A: > 100 µM

Q: And the “selectivity to 5HT2C receptors” value (5HT2C receptor; 5HT2C over 5HT2A)?
A: 40 fold

Q: And the Ki (5HT2C receptor)?
A: 2.3 µM

Q: Which “antidepressant-like activity / effect” value (male Swiss Webster mice [1]; versus vehicle) does the source give for `CN1C(=N)N(C)/C(=C/c2c[nH]c3ccccc23)C1=O` [Aplysinopsin, aplysinopsin] here?
A: did not show any significant antidepressant-like activity

Q: With `NCCc1ccc(O)c(Br)c1` [216/218, 2-(3′-bromo-4′hydroxyphenol)-ethanamine] as the compound, how does the “antidepressant-like activity / effect” value (male Swiss Webster mice [1]; versus vehicle) read?
A: dose dependent reduction in immobility

Q: What about the “effect on locomotor activity” value (male Swiss Webster mice [3]) of the same compound?
A: did not alter the locomotor activity

Q: What about the “effect on locomotor activity” value (DBA2/J mice) of the same compound?
A: did not alter the locomotor activity

Q: And the “antidepressant-like action / immobility in tail suspension test” value (Male DBA2/J mice)?
A: significant antidepressant action

Q: What about the “affinities to serotonin receptors” value (serotonin receptors) of the same compound?
A: moderate affinities

Q: Which “antidepressant-like activity / effect” value (male Swiss Webster mice [1]; versus vehicle) does the source give for `CN(C)CCc1c[nH]c2ccc(Br)cc12` [5-bromo-N,N-dimethyltryptamine] here?
A: did not exhibit antidepressant-like activity

Q: What about the “effect on locomotor activity” value (male Swiss Webster mice [3]) of the same compound?
A: significant reduction of locomotor activity

Q: And the “effect on locomotor activity” value (male Swiss Webster mice [3]; listed as 2)?
A: significant sedative effect

Q: For `CN(C)CCc1c[nH]c2cc(Br)c(Br)cc12` [5,6-dibromo-N,N-dimethyltryptamine], which “antidepressant-like activity / effect” value (male Swiss Webster mice [1]; versus vehicle) is on record?
A: significant antidepressant-like action at only the 20 mg/kg dose

Q: What about the “antidepressant-like activity / effect” value (male Swiss Webster mice [1]; versus vehicle, listed as 5,6-Dibromo-N,N-dimethyltryptamine) of the same compound?
A: significant antidepressant-like activity; also recorded: significantly reduced the immobility time only at the 20 mg/kg dose

Q: And the “effect on locomotor activity” value (male Swiss Webster mice [3])?
A: no statistically significant difference; also recorded: nonsignificant trend toward decreasing locomotor activity

Q: And the “separation distress vocalizations, depression phase” value (white-leghorn cockerels; 30-120 min of test session)?
A: elevating separation distress vocalizations in the final 30 min of the depression phase

Q: And the “separation distress vocalizations, anxiety phase” value (white-leghorn cockerels; first 5 min of test session)?
A: attenuating separation distress vocalizations in the anxiety phase

Q: What about the “antidepressant-like action / immobility in tail suspension test” value (Male DBA2/J mice) of the same compound?
A: strong antidepressant-like action at the 5 mg/kg dose only

Q: What about the Ki (5-HT2B receptors) of the same compound?
A: 0.011 µM

Q: And the Ki (5-HT6)?
A: 0.048 µM

Q: And the Ki (5HT2A receptor [4])?
A: 0.243 µM

Q: And the Ki (5-HT2C)?
A: 0.187 µM

Q: And the “affinities to serotonin receptors” value (serotonin receptors)?
A: moderate affinities
